From PubChem BioAssay (NCI) come the findings set out here.

Usually TGI stands for the concentration at which net growth stops. The term GI50 denotes the concentration at which growth is held to half of that of the control.

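Exposure lasted 48 hours, with cells grown in 96-well plates and compounds tested at five concentrations. Here, GI50 denotes the concentration required for 50% inhibition of growth. TGI denotes the concentration required for complete inhibition of growth.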

Some test systems named below: IGROV1 ovarian; MDA-MB-435; NCI-H460 lung; NCI-H522 lung; NCI/ADR-RES ovarian; OVCAR-5 ovarian; SN12C renal; T-47D breast; TK-10 renal; UACC-62 melanoma.
Holding throughout (assay): DTP human tumour cell line panel, 48 h

Take `NS(=O)(=O)c1ccc(N2C(=O)C(=O)N(c3ccccc3)C2=S)cc1`: the TGI in the assay on IGROV1 ovarian, with MDA-MB-435, with NCI-H460 lung, in the assay on NCI-H522 lung, in the assay with NCI/ADR-RES ovarian and in the assay on OVCAR-5 ovarian was more than 100 µM throughout. Also, the concentration for total growth inhibition (TGI) in the assay on SN12C renal, with T-47D breast, in the assay with TK-10 renal and in the assay with UACC-62 melanoma was more than 100 µM in each case.

For `N[C@@H](Cc1ccc2oc3cc(=O)c4ccccc4c-3nc2c1)C(=O)O`, the TGI was more than 100 µM with IGROV1 ovarian; 31.7 µM in the assay with MDA-MB-435; more than 100 µM with NCI-H460 lung; more than 100 µM in the assay on NCI-H522 lung; more than 100 µM in the assay on NCI/ADR-RES ovarian; more than 100 µM in the assay with OVCAR-5 ovarian. Also, the TGI in the assay with SN12C renal was more than 100 µM; with T-47D breast, more than 100 µM; with TK-10 renal, more than 100 µM; with UACC-62 melanoma it was 57.9 µM.

On to `ClCCc1ccccc1CC1=NCCc2ccccc21`, for which the total growth inhibition concentration (TGI) in the assay on IGROV1 ovarian is more than 100 µM; in the assay on MDA-MB-435, more than 100 µM; in the assay with NCI-H460 lung, 62.7 µM; in the assay on NCI-H522 lung, 44 µM; with NCI/ADR-RES ovarian it was 75.6 µM; in the assay with OVCAR-5 ovarian, more than 100 µM. The TGI is more than 100 µM with SN12C renal, more than 100 µM with T-47D breast, more than 100 µM in the assay with TK-10 renal and 98.9 µM in the assay with UACC-62 melanoma.

`COc1c2occc2cc2ccc(=O)oc12`: the GI50 with IGROV1 ovarian, in the assay on NCI-H522 lung and with NCI/ADR-RES ovarian was more than 100 µM in each case. Also, the TGI in the assay on IGROV1 ovarian, with MDA-MB-435, in the assay with NCI-H460 lung, in the assay with NCI-H522 lung, in the assay on NCI/ADR-RES ovarian and in the assay with OVCAR-5 ovarian was more than 100 µM in each case. Further, the TGI in the assay on SN12C renal, in the assay on T-47D breast, with TK-10 renal and with UACC-62 melanoma was more than 100 µM in each case.

For the compound `COc1ccc(S(=O)(=O)Nc2ccc(-c3csc(N4C(=O)/C(=C/c5cccs5)N=C4c4ccccc4)n3)cc2)cc1Cl`, the TGI is more than 100 µM in the assay with IGROV1 ovarian; more than 100 µM with MDA-MB-435; more than 100 µM in the assay with NCI-H460 lung; 62.8 µM in the assay with NCI-H522 lung; more than 100 µM in the assay with NCI/ADR-RES ovarian; more than 100 µM in the assay on OVCAR-5 ovarian. Also, the TGI in the assay on SN12C renal is more than 100 µM; with T-47D breast, 85 µM; in the assay with TK-10 renal it was more than 100 µM; with UACC-62 melanoma, more than 100 µM.

As for `Cc1cc(=O)n2nc(CSc3n[nH]c(=S)s3)sc2n1`, the TGI in the assay with IGROV1 ovarian, with MDA-MB-435, in the assay on NCI-H460 lung, with NCI-H522 lung, in the assay with NCI/ADR-RES ovarian and in the assay with OVCAR-5 ovarian was more than 100 µM throughout. Also, the TGI in the assay with SN12C renal, in the assay with T-47D breast, with TK-10 renal and in the assay on UACC-62 melanoma was more than 100 µM each time.

As to `COc1ccc(/C=C2/SC(c3c(O)ccc4ccccc34)N(NC(=O)CCCCCCCCC(=O)NN3C(=O)/C(=C\c4ccc(OC)c(OC)c4)SC3c3c(O)ccc4ccccc34)C2=O)cc1OC` (stereo not drawn), the total growth inhibition concentration (TGI) in the assay with IGROV1 ovarian is 10.7 µM; in the assay with MDA-MB-435, more than 100 µM; in the assay with NCI-H460 lung, more than 100 µM; in the assay with NCI-H522 lung it was more than 100 µM; in the assay on NCI/ADR-RES ovarian, 32.1 µM; with OVCAR-5 ovarian it was more than 100 µM. The concentration for total growth inhibition (TGI) with SN12C renal is more than 100 µM; in the assay on T-47D breast it was 48.9 µM; with TK-10 renal, more than 100 µM; with UACC-62 melanoma, 11.2 µM.

Turning to `Nc1ncnc2c1cnn2COCC(O)CO` (stereo not drawn), the concentration for total growth inhibition (TGI) in the assay with IGROV1 ovarian, with MDA-MB-435, in the assay on NCI-H460 lung, in the assay with NCI-H522 lung, in the assay on NCI/ADR-RES ovarian and with OVCAR-5 ovarian was more than 100 µM throughout. The TGI in the assay with SN12C renal, in the assay on T-47D breast, in the assay with TK-10 renal and in the assay on UACC-62 melanoma was more than 100 µM throughout.

For `CC(C)C[C@H](NC(=O)CCc1cccc2ccccc12)B(O)O`, the TGI with IGROV1 ovarian came to 23.8 µM; with MDA-MB-435, 1.02 µM; in the assay on NCI-H460 lung it was 19.5 µM; in the assay with NCI-H522 lung, 4.95 µM; with NCI/ADR-RES ovarian, 11.7 µM; in the assay with OVCAR-5 ovarian, 6.72 µM. The TGI in the assay on SN12C renal is 21 µM; in the assay on T-47D breast, 4.23 µM; in the assay with TK-10 renal, 12.4 µM; in the assay with UACC-62 melanoma, 5.59 µM.

On to `COC(=O)C1SC[C@H]2C(=O)N(c3ccccc3)C(=O)N12` (stereo partly drawn), for which the total growth inhibition concentration (TGI) in the assay with IGROV1 ovarian, in the assay with MDA-MB-435, with NCI-H460 lung, in the assay with NCI-H522 lung, with NCI/ADR-RES ovarian and in the assay on OVCAR-5 ovarian was more than 100 µM in each case. Moreover, the TGI with SN12C renal, with T-47D breast, in the assay on TK-10 renal and with UACC-62 melanoma was more than 100 µM throughout.

As for `C(/C=C/Nc1ccc(-c2ccccc2)cc1)=Nc1ccc(-c2ccccc2)cc1`, the TGI in the assay on IGROV1 ovarian, with MDA-MB-435, in the assay with NCI-H460 lung, with NCI-H522 lung, with NCI/ADR-RES ovarian and with OVCAR-5 ovarian was more than 100 µM each time. The TGI with SN12C renal, with T-47D breast, in the assay with TK-10 renal and in the assay with UACC-62 melanoma was more than 100 µM throughout.

Turning to `CCCCCCCCCC[N+](C)(C)C`, the GI50 in the assay with IGROV1 ovarian was 1.66 µM; in the assay with MDA-MB-435 it was 1.75 µM; in the assay with NCI-H460 lung, 1.73 µM; with NCI-H522 lung, 1.7 µM; in the assay with NCI/ADR-RES ovarian, 15.1 µM; in the assay on OVCAR-5 ovarian, 1.05 µM. The GI50 was 2.95 µM in the assay on SN12C renal, 1.91 µM with T-47D breast, 1.42 µM in the assay with TK-10 renal and 1.69 µM in the assay with UACC-62 melanoma. The concentration for total growth inhibition (TGI) in the assay on IGROV1 ovarian is 3.2 µM; with MDA-MB-435, 4.29 µM; in the assay on NCI-H460 lung, 3.84 µM; with NCI-H522 lung it was 5.11 µM; in the assay on NCI/ADR-RES ovarian it was 49.6 µM; with OVCAR-5 ovarian, 3.89 µM. In addition, the TGI in the assay on SN12C renal was determined as 8.66 µM; in the assay on T-47D breast it was 8.33 µM; in the assay on TK-10 renal, 3.27 µM; in the assay with UACC-62 melanoma it was 4.59 µM.
